From ChEMBL document CHEMBL5291721, “A preclinical secondary pharmacology resource illuminates target-adverse drug reaction associations of marketed drugs” (Nat Commun, 2023) come the findings set out here.

Assay [1] addresses Gamma-aminobutyric acid receptor subunit alpha-1 (Rattus norvegicus, UniProt P62813). It is filed as functional.
Assay [2] addresses T1, Alpha-2B adrenergic receptor (Homo sapiens, UniProt P18089).
T1 sequence (P18089 whole entry): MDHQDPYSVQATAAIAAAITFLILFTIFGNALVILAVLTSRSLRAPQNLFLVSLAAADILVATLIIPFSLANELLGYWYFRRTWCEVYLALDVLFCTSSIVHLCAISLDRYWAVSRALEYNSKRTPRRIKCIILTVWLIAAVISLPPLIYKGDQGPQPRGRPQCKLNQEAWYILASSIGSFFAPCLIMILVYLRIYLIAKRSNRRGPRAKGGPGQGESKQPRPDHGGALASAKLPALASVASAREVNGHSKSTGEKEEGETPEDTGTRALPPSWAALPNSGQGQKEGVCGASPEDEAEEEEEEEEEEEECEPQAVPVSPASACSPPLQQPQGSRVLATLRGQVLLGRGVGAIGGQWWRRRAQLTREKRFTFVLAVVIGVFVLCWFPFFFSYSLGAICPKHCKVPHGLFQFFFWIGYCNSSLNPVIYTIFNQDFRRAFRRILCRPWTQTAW

The target of assay [3] is T2, Amine oxidase [flavin-containing] A (Homo sapiens, UniProt P21397).
T2 sequence (P21397 whole entry): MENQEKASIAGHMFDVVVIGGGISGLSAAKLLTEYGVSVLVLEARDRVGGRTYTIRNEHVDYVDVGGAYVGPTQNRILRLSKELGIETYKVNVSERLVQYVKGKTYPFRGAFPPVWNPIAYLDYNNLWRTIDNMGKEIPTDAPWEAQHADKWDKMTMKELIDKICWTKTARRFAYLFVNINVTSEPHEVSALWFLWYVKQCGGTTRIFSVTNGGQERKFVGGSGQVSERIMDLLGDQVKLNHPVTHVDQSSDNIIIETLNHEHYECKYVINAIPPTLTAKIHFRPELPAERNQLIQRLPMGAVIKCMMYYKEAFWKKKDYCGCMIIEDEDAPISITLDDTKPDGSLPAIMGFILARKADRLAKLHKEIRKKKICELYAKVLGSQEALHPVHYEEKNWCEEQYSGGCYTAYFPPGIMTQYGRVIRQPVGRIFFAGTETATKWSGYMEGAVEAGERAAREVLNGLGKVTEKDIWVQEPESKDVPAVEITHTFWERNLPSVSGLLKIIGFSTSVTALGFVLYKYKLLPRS
It is filed as functional.

Assay [4] concerns the target T3, Alpha-2A adrenergic receptor (Homo sapiens, UniProt P08913).
T3 sequence (P08913 whole entry): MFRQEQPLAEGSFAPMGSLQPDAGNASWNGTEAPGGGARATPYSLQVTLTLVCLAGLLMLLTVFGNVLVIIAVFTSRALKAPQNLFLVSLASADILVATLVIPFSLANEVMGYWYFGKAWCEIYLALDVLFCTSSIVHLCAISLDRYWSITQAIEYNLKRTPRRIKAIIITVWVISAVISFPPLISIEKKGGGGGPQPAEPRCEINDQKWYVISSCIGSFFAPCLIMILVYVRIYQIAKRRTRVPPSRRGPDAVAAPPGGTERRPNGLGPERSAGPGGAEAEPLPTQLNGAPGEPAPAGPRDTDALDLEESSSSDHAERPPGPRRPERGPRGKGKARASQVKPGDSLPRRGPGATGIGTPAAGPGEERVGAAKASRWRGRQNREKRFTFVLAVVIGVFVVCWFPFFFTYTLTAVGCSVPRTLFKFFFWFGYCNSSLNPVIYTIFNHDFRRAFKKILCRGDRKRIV
It is filed as functional, cell-based.

The target of assay [5] is 5-hydroxytryptamine receptor 2A (Homo sapiens, UniProt P28223). It is filed as functional, cell-based.
Sequence of 5-hydroxytryptamine receptor 2A (P28223 whole entry): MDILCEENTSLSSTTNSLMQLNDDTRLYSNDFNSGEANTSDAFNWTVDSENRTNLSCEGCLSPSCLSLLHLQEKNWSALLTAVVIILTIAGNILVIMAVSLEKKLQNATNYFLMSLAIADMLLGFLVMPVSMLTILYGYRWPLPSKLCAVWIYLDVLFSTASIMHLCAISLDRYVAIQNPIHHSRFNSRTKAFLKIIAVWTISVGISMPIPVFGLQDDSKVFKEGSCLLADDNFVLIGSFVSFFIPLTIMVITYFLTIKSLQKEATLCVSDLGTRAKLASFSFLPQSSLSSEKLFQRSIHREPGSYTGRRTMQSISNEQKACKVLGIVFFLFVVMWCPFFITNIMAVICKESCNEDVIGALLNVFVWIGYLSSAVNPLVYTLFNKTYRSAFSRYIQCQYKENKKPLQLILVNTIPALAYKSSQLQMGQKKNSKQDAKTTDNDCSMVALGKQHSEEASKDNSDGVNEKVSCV
The target in the next assay is Cannabinoid receptor 1 (Homo sapiens, UniProt P21554).
Sequence of Cannabinoid receptor 1 (P21554 whole entry): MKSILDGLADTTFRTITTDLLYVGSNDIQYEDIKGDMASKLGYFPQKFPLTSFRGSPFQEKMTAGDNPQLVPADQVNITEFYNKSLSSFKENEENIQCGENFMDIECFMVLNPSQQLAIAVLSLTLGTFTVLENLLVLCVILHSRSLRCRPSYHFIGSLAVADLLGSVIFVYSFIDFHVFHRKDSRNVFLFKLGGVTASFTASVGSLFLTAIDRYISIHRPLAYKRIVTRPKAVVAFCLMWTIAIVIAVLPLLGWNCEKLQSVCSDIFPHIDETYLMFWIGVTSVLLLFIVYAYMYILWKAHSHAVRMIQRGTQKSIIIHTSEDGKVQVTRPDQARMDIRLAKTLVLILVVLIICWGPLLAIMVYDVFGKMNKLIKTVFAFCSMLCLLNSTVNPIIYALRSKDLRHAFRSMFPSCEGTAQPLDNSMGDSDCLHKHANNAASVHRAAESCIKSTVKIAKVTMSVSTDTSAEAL
A further assay deals with Mu-type opioid receptor (Homo sapiens, UniProt P35372). Briefly: biochemical. In kind it is functional.
Sequence of Mu-type opioid receptor (P35372 whole entry): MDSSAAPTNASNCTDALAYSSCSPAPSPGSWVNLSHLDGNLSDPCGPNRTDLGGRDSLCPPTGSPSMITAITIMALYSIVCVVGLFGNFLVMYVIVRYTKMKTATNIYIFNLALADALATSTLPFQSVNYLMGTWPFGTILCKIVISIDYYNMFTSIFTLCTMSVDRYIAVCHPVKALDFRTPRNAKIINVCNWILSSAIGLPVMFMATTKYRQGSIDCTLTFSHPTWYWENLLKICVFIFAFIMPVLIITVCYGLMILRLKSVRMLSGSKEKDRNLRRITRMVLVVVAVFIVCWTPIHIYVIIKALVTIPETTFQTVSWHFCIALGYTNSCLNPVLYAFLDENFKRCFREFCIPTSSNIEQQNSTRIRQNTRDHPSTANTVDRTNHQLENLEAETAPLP
Assay [6] deals with T4, Alpha-1A adrenergic receptor (Homo sapiens, UniProt P35348).
T4 sequence (P35348 whole entry): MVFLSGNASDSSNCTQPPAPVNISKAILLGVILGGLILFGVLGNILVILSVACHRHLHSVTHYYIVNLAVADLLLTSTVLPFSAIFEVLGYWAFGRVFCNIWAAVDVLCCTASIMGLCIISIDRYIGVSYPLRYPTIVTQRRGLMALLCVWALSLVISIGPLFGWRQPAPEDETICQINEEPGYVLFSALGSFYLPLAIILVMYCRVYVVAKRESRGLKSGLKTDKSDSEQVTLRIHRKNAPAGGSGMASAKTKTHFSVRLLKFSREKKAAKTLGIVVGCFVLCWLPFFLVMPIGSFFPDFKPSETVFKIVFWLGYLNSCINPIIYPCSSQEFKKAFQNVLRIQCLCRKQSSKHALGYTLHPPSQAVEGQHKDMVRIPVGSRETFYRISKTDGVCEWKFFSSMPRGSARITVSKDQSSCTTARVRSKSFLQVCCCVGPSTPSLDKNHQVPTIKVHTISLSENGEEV
In kind it is functional, cell-based.

Assay [7] concerns the target Beta-2 adrenergic receptor (Homo sapiens, UniProt P07550). In kind it is functional, cell-based.

What is called AC50 is the midpoint of the concentration-response curve, whichever way the signal moves. Read a low AC50 as greater potency.
Also: assay procedure not described here.

Sequence of Beta-2 adrenergic receptor (P07550 whole entry): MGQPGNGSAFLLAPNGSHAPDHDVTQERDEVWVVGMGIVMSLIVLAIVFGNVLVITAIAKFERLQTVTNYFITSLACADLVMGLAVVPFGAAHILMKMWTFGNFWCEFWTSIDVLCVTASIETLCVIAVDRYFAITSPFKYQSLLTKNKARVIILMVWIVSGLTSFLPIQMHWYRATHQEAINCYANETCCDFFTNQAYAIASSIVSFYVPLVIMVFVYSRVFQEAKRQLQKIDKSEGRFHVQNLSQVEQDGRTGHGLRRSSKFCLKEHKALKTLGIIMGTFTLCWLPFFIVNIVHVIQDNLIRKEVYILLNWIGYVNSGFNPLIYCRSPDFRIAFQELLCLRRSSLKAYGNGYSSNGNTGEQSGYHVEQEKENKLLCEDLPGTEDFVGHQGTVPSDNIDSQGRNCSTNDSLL
Sequence of Gamma-aminobutyric acid receptor subunit alpha-1 (P62813 whole entry): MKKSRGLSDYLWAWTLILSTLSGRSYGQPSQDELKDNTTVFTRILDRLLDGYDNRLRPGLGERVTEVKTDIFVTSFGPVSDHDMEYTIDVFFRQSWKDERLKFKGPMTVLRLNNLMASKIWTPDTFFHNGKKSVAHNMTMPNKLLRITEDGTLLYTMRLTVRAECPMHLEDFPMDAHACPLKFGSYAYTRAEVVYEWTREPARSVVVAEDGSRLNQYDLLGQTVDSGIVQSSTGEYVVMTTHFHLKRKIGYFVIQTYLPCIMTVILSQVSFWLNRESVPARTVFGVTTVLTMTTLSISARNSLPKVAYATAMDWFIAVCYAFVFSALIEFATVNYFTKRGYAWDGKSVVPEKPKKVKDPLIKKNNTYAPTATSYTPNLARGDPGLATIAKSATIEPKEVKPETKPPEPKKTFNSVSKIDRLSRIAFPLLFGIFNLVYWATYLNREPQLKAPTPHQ

As to `O=C(O)c1ccc2nc(-c3cc(Cl)cc(Cl)c3)oc2c1`, the half-maximal activity concentration (AC50) in assay [1] is greater than 30 µM; in assay [2] it was greater than 30 µM; in [3] it was 18 µM; in [4], greater than 30 µM; in assay [5], greater than 30 µM; at Cannabinoid receptor 1 it was 22 µM. The concentration at half-maximal activity (AC50) (on Mu-type opioid receptor; in [6]) was greater than 30 µM each time.

For `NS(=O)(=O)c1ccc(N2CCCCS2(=O)=O)cc1`, the AC50 in assay [1], in assay [2], in assay [3], in assay [7], in assay [4] and in [5] was greater than 30 µM each time. The same molecule returned a half-maximal activity concentration (AC50) on Mu-type opioid receptor greater than 30 µM.

On to `CC(=O)OCC1=C(C(=O)O)N2C(=O)[C@@H](NC(=O)Cc3cccs3)[C@H]2SC1` [CEPHALOTHIN], for which the concentration at half-maximal activity (AC50) in assay [1], in assay [2], in assay [3], in assay [7], in [4] and in assay [5] was greater than 30 µM in each case. For the same molecule, the AC50 (at Mu-type opioid receptor; in assay [6]) was greater than 30 µM each time.

`CC1=C(C(=O)O)N2C(=O)[C@@H](NC(=O)[C@H](N)C3=CCC=CC3)[C@H]2SC1` [CEPHRADINE]: the AC50 in assay [1], in assay [2], in [3], in [7], in assay [4] and in assay [5] was greater than 30 µM each time. The molecule further gave a concentration at half-maximal activity (AC50) at Mu-type opioid receptor greater than 30 µM.

With `CCN1C(=O)NC(c2ccccc2)C1=O` (stereo not given) [ETHOTOIN], the concentration at half-maximal activity (AC50) in [1], in [2], in assay [3], in assay [7], in [4] and in assay [5] was greater than 30 µM each time. The concentration at half-maximal activity (AC50) (at Mu-type opioid receptor; in assay [6]) was greater than 30 µM throughout.

With `CC(=O)OCC(=O)[C@@]1(O)CC[C@H]2[C@@H]3CCC4=CC(=O)CC[C@]4(C)[C@@]3(F)[C@@H](O)C[C@@]21C` [FLUDROCORTISONE ACETATE], the half-maximal activity concentration (AC50) (in assay [1]; in [7]; in assay [4]; on Mu-type opioid receptor; in assay [6]) was greater than 30 µM throughout.

With `Cc1ccc(S(=O)(=O)NC(=O)N[C@H]2[C@H]3CC[C@@](C)([C@H]2O)C3(C)C)cc1` [GLIBORNURIDE], the half-maximal activity concentration (AC50) in assay [1], in assay [2], in assay [3], in assay [7], in [4] and in assay [5] was greater than 30 µM each time. Besides, the AC50 (on Mu-type opioid receptor; in assay [6]) was greater than 30 µM throughout.

On to `CCC(=O)O[C@H](CC(=O)O)C[N+](C)(C)C` [LEVOCARNITINE PROPIONATE], for which the half-maximal activity concentration (AC50) in [1], in assay [2], in [3], in assay [7], in assay [4] and in [5] was greater than 30 µM each time. At Mu-type opioid receptor, the AC50 was greater than 30 µM.

`O=C(O)c1nn(Cc2ccc(Cl)cc2Cl)c2ccccc12` [LONIDAMINE]: the concentration at half-maximal activity (AC50) in assay [1] is greater than 30 µM; in assay [2], greater than 30 µM; in assay [3] it was greater than 30 µM; in assay [7], greater than 10 µM; in [4], greater than 30 µM; in assay [5], greater than 30 µM. In addition, the AC50 (on Mu-type opioid receptor; in assay [6]) was greater than 30 µM each time.

For the molecule `COc1nc(C)nc(Cl)c1N=C1NCCN1` [MOXONIDINE], the AC50 (in assay [1]; in assay [3]; in assay [7]; on Mu-type opioid receptor) was greater than 30 µM in each case.

As to `COC(=O)c1ccc2c(c1)NC(=O)/C2=C(\Nc1ccc(N(C)C(=O)CN2CCN(C)CC2)cc1)c1ccccc1` [NINTEDANIB], the AC50 in [1] was greater than 30 µM; in [2], 11 µM; in [3] it was greater than 30 µM; in assay [7], greater than 30 µM; in assay [4] it was greater than 30 µM; in assay [5] it was greater than 30 µM. Moreover, the AC50 (at Mu-type opioid receptor; in assay [6]) was greater than 30 µM throughout.

For `CN1CCCN=C1/C=C/c1cccc(O)c1` [OXANTEL], the concentration at half-maximal activity (AC50) in assay [1] is greater than 30 µM; in assay [2] it was greater than 30 µM; in assay [3] it was 21 µM; in [7], greater than 30 µM; in assay [4], greater than 30 µM; in assay [5] it was greater than 30 µM. For the same molecule, the AC50 (on Mu-type opioid receptor; in assay [6]) was greater than 30 µM throughout.

On to `CCC(=O)[C@@]1(C)[C@H](C)C[C@H]2[C@@H]3CCC4=CC(=O)C=C[C@]4(C)[C@H]3[C@@H](O)C[C@@]21C` [RIMEXOLONE], for which the AC50 in [1] is greater than 10 µM; in assay [2], greater than 10 µM; in assay [3], greater than 10 µM; in [4] it was greater than 10 µM; in assay [5] it was greater than 10 µM; on Cannabinoid receptor 1 it was 6.91 µM. For the same molecule, on Mu-type opioid receptor, the AC50 was greater than 30 µM.

As to `CS(=O)(=O)NC(=O)CCC/C=C\C[C@H]1C(=O)C[C@@H](O)[C@@H]1/C=C/[C@@H](O)COc1ccccc1` [SULPROSTONE], the half-maximal activity concentration (AC50) in assay [1], in assay [2], in assay [3], in assay [7], in assay [4] and in [5] was greater than 30 µM in each case. Further, the half-maximal activity concentration (AC50) (at Mu-type opioid receptor; in assay [6]) was greater than 30 µM each time.

With `CCCCC[C@H](O)CC[C@@H]1[C@H]2Cc3cccc(OCC(=O)O)c3C[C@H]2C[C@H]1O` [TREPROSTINIL], the half-maximal activity concentration (AC50) in assay [1], in assay [2], in assay [3], in [7], in assay [4] and in assay [5] was greater than 30 µM in each case. The AC50 (at Mu-type opioid receptor; in assay [6]) was greater than 30 µM in each case.

Turning to `CCCCCCCC(=O)CC[C@@H]1[C@@H](C/C=C\CCCC(=O)O)[C@@H](O)C[C@H]1O` [UNOPROSTONE], the half-maximal activity concentration (AC50) in assay [1], in assay [2], in assay [3], in assay [7], in [4] and in assay [5] was greater than 30 µM in each case. Moreover, the half-maximal activity concentration (AC50) (at Mu-type opioid receptor; in assay [6]) was greater than 30 µM in each case.

Take `OCC(CO)N[C@H]1C[C@](O)(CO)[C@@H](O)[C@H](O)[C@H]1O` [VOGLIBOSE]: the AC50 (in assay [1]; in assay [2]; in [3]; in assay [4]; in assay [5]; at Cannabinoid receptor 1) was greater than 30 µM each time. Besides, the AC50 (at Mu-type opioid receptor; in assay [6]) was greater than 30 µM each time.
